These results are taken from ChEMBL document CHEMBL5537170, “Design, Synthesis, and Anti-Osteoporotic Characterization of Arginine N-Glycosylated Teriparatide Analogs via the Silver-catalyzed Solid-Phase Glycosylation Strategy” (J Med Chem, 2024).

Activity calls are given as the source filed them. The rule behind the calls is not given here.

Data set [1] can be described thus: Cytotoxicity against C57BL/6 mouse Pre-Osteoblast cells assessed as cell death upto 5 uM incubated for 4 days by CCK-8 assay. The format is toxicity, cell-based. Particulars: 96 h, time 4 day. (In general: Tetrazolium assays rely on reduction of a dye to a coloured formazan, in cell work by metabolically active cells.)
Data set [2] relates to Pre-Osteoblast. In words: Induction of osteoblast differentiation in C57BL/6 mouse Pre-Osteoblast cells assessed as increase in ALP expression by measuring increase in ALP-positive cells with purple color at 50 nM measured after 2 days by ALP staining based analysis. Format: functional, cell-based. The conditions noted are these: time 2.0 day.
The subject of data set [3] is Pre-Osteoblast. In words: Induction of osteoblast differentiation in C57BL/6 mouse Pre-Osteoblast cells assessed as increase in bone mineralization by measuring increase in red calcium nodules measured after 14 days by Alizarin Red S staining based analysis. The format is functional, cell-based. Particulars: time 14.0 day.
The subject of data set [4] is Pre-Osteoblast. In words: Induction of osteoblast differentiation in C57BL/6 mouse Pre-Osteoblast cells assessed as increase in bone mineralization by measuring increase in area of calcium nodules measured after 14 days by Alizarin Red S staining based analysis. The format is functional, cell-based. The conditions noted are these: time 14.0 day.
Data set [5] deals with Pre-Osteoblast. In words: Induction of osteoblast differentiation in C57BL/6 mouse Pre-Osteoblast cells assessed as upregulation of ALP gene expression measured on day 4 and 7 by qPCR analysis. The format is functional, cell-based. The conditions noted are these: time 4-7 day. Background: In qPCR the cycle at which signal appears reflects the starting amount.
The subject of data set [6] is Pre-Osteoblast. In words: Induction of osteoblast differentiation in C57BL/6 mouse Pre-Osteoblast cells assessed as upregulation of OCN gene expression measured on day 4 and 7 by qPCR analysis. Format: functional, cell-based. Particulars: time 4-7 day.
The test system of data set [7] is Pre-Osteoblast. In words: Induction of osteoblast differentiation in C57BL/6 mouse Pre-Osteoblast cells assessed as upregulation of Runx2 gene expression measured on day 4 and 7 by qPCR analysis. The format is functional, cell-based. The conditions noted are these: time 4-7 day.
Data set [8] concerns Mus musculus. In words: Anti-osteoporosis activity in ovariectomized C57BL/6J mouse model assessed as increase in bone volume percent in femur at 20 microg/kg, sc administered 3 times a week for 8 weeks by micro-CT analysis. The format is functional, organism-based. The conditions noted are these: dose 20.0 µg/kg.
Data set [9] concerns Mus musculus. Put plainly: Anti-osteoporosis activity in ovariectomized C57BL/6J mouse model assessed as increase in bone surface density in femur at 20 microg/kg, sc administered 3 times a week for 8 weeks by micro-CT analysis. Particulars: dose 20.0 µg/kg. Format: functional, organism-based.
The test system of data set [10] is Mus musculus. In words: Anti-osteoporosis activity in ovariectomized C57BL/6J mouse model assessed as increase in trabecular number in femur at 20 microg/kg, sc administered 3 times a week for 8 weeks by micro-CT analysis. Format: functional, organism-based. Particulars: dose 20.0 µg/kg.
The nature of data set [11]: Stability in human serum assessed as compound remaining at 1 mg/ml measured after 12 hrs by HPLC analysis. Format: ADME, cell-free. Particulars: read-out: Stability.
The nature of data set [12]: Induction of osteoblast differentiation in C57BL/6 mouse Pre-Osteoblast cells assessed as fold increase in ephrinB2 protein expression at 50 nM measured after 72 hrs by Western blot analysis relative to control. The format is functional.
Data set [13] in a line: Induction of osteoblast differentiation in C57BL/6 mouse Pre-Osteoblast cells assessed as fold increase in ephrinB2 protein expression at 100 nM measured after 72 hrs by Western blot analysis relative to control. The format is functional.
A short description of data set [14]: Induction of osteoblast differentiation in C57BL/6 mouse Pre-Osteoblast cells assessed as fold increase in ephrinB2 protein expression at 200 nM measured after 72 hrs by Western blot analysis relative to control. Format: functional. Background: A western blot detects proteins with antibodies after separation by electrophoresis.
The nature of data set [15]: Stability in human serum assessed as compound degradation at 1 mg/ml measured after 12 hrs by HPLC analysis. Format: ADME, cell-free. Particulars: read-out: Drug degradation.

For the compound `CC[C@H](C)[C@H](NC(=O)[C@H](CCC(=O)O)NC(=O)[C@H](CO)NC(=O)[C@@H](NC(=O)[C@H](CO)NC(C)=O)C(C)C)C(=O)N[C@@H](CCC(N)=O)C(=O)N[C@@H](CC(C)C)C(=O)N[C@@H](CCSC)C(=O)N[C@@H](Cc1cnc[nH]1)C(=O)N[C@@H](CC(N)=O)C(=O)N[C@@H](CC(C)C)C(=O)NCC(=O)N[C@@H](CCCCN)C(=O)N[C@@H](Cc1cnc[nH]1)C(=O)N[C@@H](CC(C)C)C(=O)N[C@@H](CC(N)=O)C(=O)N[C@@H](CO)C(=O)N[C@@H](CCSC)C(=O)N[C@@H](CCC(=O)O)C(=O)N[C@@H](CCCNC(=N)N)C(=O)N[C@H](C(=O)N[C@@H](CCC(=O)O)C(=O)N[C@@H](Cc1c[nH]c2ccccc12)C(=O)N[C@@H](CC(C)C)C(=O)N[C@@H](CCCNC(=N)N[C@@H]1O[C@H](CO)[C@@H](O[C@H]2O[C@H](CO)[C@@H](O)[C@H](O)[C@H]2O)[C@H](O)[C@H]1O)C(=O)N[C@@H](CCCCN)C(=O)N[C@@H](CCCCN)C(=O)N[C@@H](CC(C)C)C(=O)N[C@@H](CCC(N)=O)C(=O)N[C@@H](CC(=O)O)C(=O)N[C@H](C(=O)N[C@@H](Cc1cnc[nH]1)C(=O)N[C@@H](CC(N)=O)C(=O)N[C@@H](Cc1ccccc1)C(N)=O)C(C)C)C(C)C`, the Activity result in data set [1] is listed as “Non-Toxic”. The result in [2], in [3], in data set [4], in data set [5], in data set [6] and in [7] was Active. In addition, the result in data set [8], in data set [9] and in data set [10] was Active. In addition, the remaining at 12 h, 1 mg/ml in data set [11] is greater than 75%. The “fold change (FC)” value came to 1.16 in data set [12], 1.34 in data set [13] and 1.32 in [14].
In the case of `CC[C@H](C)[C@H](NC(=O)[C@H](CCC(=O)O)NC(=O)[C@H](CO)NC(=O)[C@@H](NC(=O)[C@H](CO)NC(C)=O)C(C)C)C(=O)N[C@@H](CCC(N)=O)C(=O)N[C@@H](CC(C)C)C(=O)N[C@@H](CCSC)C(=O)N[C@@H](Cc1cnc[nH]1)C(=O)N[C@@H](CC(N)=O)C(=O)N[C@@H](CC(C)C)C(=O)NCC(=O)N[C@@H](CCCCN)C(=O)N[C@@H](Cc1cnc[nH]1)C(=O)N[C@@H](CC(C)C)C(=O)N[C@@H](CC(N)=O)C(=O)N[C@@H](CO)C(=O)N[C@@H](CCSC)C(=O)N[C@@H](CCC(=O)O)C(=O)N[C@@H](CCCNC(=N)N)C(=O)N[C@H](C(=O)N[C@@H](CCC(=O)O)C(=O)N[C@@H](Cc1c[nH]c2ccccc12)C(=O)N[C@@H](CC(C)C)C(=O)N[C@@H](CCCNC(=N)N)C(=O)N[C@@H](CCCCN)C(=O)N[C@@H](CCCCN)C(=O)N[C@@H](CC(C)C)C(=O)N[C@@H](CCC(N)=O)C(=O)N[C@@H](CC(=O)O)C(=O)N[C@H](C(=O)N[C@@H](Cc1cnc[nH]1)C(=O)N[C@@H](CC(N)=O)C(=O)N[C@@H](Cc1ccccc1)C(N)=O)C(C)C)C(C)C`, the Activity result in data set [1] is “Non-Toxic”. Also, in data set [15], the metabolised at 12 h, 1 mg/ml is greater than 50%. Also, the “fold change (FC)” value in [12] turned out to be 1.04; in data set [13], 1.05; in data set [14] it was 1.23.
